Here are results for two molecules from patent publication US20100099614A1, “Antimicrobial Peptides and Methods of Use” (priority 2008, published 2010).

Where two headings read alike, the source gives them in different places.

This assay has as its system multiple drug resistant M. tuberculosis strain vertulo. The conditions noted are these: for Anti-tuberculosis activity to multi-drug resistant strain (vertulo) Fold (compared to D4): relative to D4.

With `CC[C@@H](C)[C@@H](NC(=O)[C@@H](C)NC(=O)[C@@H](CCCCN)NC(=O)[C@@H](CC(C)C)NC(=O)[C@@H](C)NC(=O)[C@H](NC(=O)[C@@H](Cc1c[nH]cn1)NC(=O)[C@@H](CC(C)C)NC(=O)[C@H](NC(=O)[C@H](NC(=O)[C@@H](CCCCN)NC(=O)[C@@H](CCCCN)NC(=O)[C@@H](C)NC(=O)[C@@H](CO)NC(=O)[C@@H](CCCCN)NC(=O)[C@@H](Cc1ccccc1)NC(=O)[C@H](NC(=O)[C@@H](CCCCN)NC(=O)[C@@H](CC(C)C)NC(=O)[C@@H](Cc1ccccc1)NC(=O)[C@@H](CO)NC(=O)[C@@H](CCCCN)NC(=O)[C@@H](Cc1c[nH]c2ccccc12)NC(=O)[C@@H](CCCCN)NC(C)=O)[C@H](C)O)[C@H](C)O)C(C)C)[C@H](C)O)C(=O)N[C@H](CO)C(=O)N[C@H](CO)C(N)=O` [D1], the “Anti-tuberculosis activity to multi-drug resistant strain (vertulo) MIC” value worked out at 57 µg/mL and the “Anti-tuberculosis activity to multi-drug resistant strain (vertulo) Fold (compared to D4)” value is on record as >8.4 fold. Besides, under “multiple drug resistant strain vertulo”, the “Anti-tuberculosis activity to multi-drug resistant strain (vertulo) MIC” value came to 19.1 µM.

Consider `CC[C@@H](C)[C@@H](NC(=O)[C@@H](CC(C)C)NC(=O)[C@@H](CCCCN)NC(=O)[C@@H](CC(C)C)NC(=O)[C@@H](CC(C)C)NC(=O)[C@H](NC(=O)[C@@H](Cc1c[nH]cn1)NC(=O)[C@@H](CC(C)C)NC(=O)[C@@H](CCCCN)NC(=O)[C@H](NC(=O)[C@@H](CCCCN)NC(=O)[C@@H](CCCCN)NC(=O)[C@@H](CC(C)C)NC(=O)[C@@H](CO)NC(=O)[C@@H](CCCCN)NC(=O)[C@@H](Cc1ccccc1)NC(=O)[C@H](NC(=O)[C@@H](CCCCN)NC(=O)[C@@H](CC(C)C)NC(=O)[C@@H](Cc1ccccc1)NC(=O)[C@@H](CO)NC(=O)[C@@H](CCCCN)NC(=O)[C@@H](Cc1c[nH]c2ccccc12)NC(=O)[C@@H](CCCCN)NC(C)=O)[C@H](C)O)[C@H](C)O)[C@H](C)O)C(=O)N[C@H](CO)C(=O)N[C@H](CO)C(N)=O` [D5], for which the “Anti-tuberculosis activity to multi-drug resistant strain (vertulo) Fold (compared to D4)” value is >10.3 fold.
